Experimental data as given in patent US12421212B2, “Substituted benzenecarboxamides as IL-17A modulators” (DiCE Alpha, Inc., priority 2019, dated 2025).

Target: T1, IL-17A/A (Homo sapiens, UniProt Q16552)
T1 construct: purchased Genscript Z03228
T1 sequence (Q16552 24-155): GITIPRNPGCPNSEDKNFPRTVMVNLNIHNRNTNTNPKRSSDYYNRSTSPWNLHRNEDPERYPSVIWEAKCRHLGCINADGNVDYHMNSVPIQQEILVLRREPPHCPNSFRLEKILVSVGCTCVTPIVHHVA
Assay: IL-17A/A HEK-Blue Cell Assay
Type: cell-based
Details: HEK-Blue IL-17A reporter cell line, SEAP readout at A630, 20 hours incubation with IL-17A/A, top concentration 10 uM, 1 uM or 0.3 uM; for IC50: read-out: IL-17A/A inhibition (pIC50) (converted)
Procedure: The HEK-Blue IL-17A reporter cell line (Fisher #NC1408637) was used for cell-based IL-17A/A inhibition assays. Cells were grown and prepared for assays according to the manufacturer's instructions. This cell line consists of HEK 293 cells that were designed to expressed IL-17RA, IL-17RC, and the ActI adapter molecule, the combination of which, when stimulated by IL-17A/A activates a NFκB promoter and drives expression of a recombinant Secreted Alkaline Phosphatase (SEAP) geneprotein. Media from the cells is then added to a development reagent (Quanti-Blue Substrate, Fisher #NC9711613), and read at A630.
Compounds were titrated in DMSO, with a top final compound concentration of 10 uM, 1 uM, or 0.3 uM, and added to the cells immediately before adding IL-17A/A (Genscript #Z03228). The cells, compound, and IL-17A/A were then incubated for 20 hours before media was removed for SEAP analysis. The resulting inhibition curve was then analyzed using Graphpad Prism 7.0, and IC50 values were determined using a 4-parameter nonlinear fit. DMSO was added to a universal final concentration of 0.1% to optimize background.

SMILES	IC50 [µM]	IL-17A/A inhibition (pIC50)
CCC(=O)N[C@@H](C(=O)N1CCN(C)CC1)[C@@H](C)c1ccc(NC(=O)C(NC(=O)c2ccnn2CC)C(C)C2CCC(C)CC2)c(F)c1 (stereo partly shown) [Compound 612]		X2b (compounds were evaluated up to 1 uM and inhibited activity at 1 uM by less than 20%)
CCC(=O)N[C@@H](C(=O)N1CCN(C)CC1)[C@@H](C)c1ccc(NC(=O)C(NC(=O)c2ccnn2CC)C(CC)c2ccc(F)cc2)c(F)c1 (single isomer, unassigned) [Compound 556]		X2a (compounds were evaluated up to 1 uM and did not inhibit activity by >80%, however they showed some activity at 1 uM (less than 80% and more than 20%))
CCC(=O)N[C@@H](C(=O)N1CCC(F)(F)CC1)[C@@H](C)c1ccc(NC(=O)[C@@H](NC(=O)c2conc2C(C)(C)N)[C@H]2CC[C@H](C)CC2)c(F)c1 [Compound 534]	0.01 to 0.1	
CCC(=O)N[C@H](Cc1ccc(NC(=O)[C@@H](NC(=O)c2ccc(C(=O)NC)n2C)C2CCCCC2)c(F)c1)C(=O)N1CCN(C)CC1 [Compound 780]		X1b (compounds were evaluated up to 10 uM and inhibited activity at 10 uM by less than 20%)
CCC(=O)N[C@H](Cc1ccc(NC(=O)[C@@H](NC(=O)c2conc2CC)C2CCCCCC2)c(F)c1)C(=O)N1CCN(C)CC1 [Compound 236]	0.01 to 0.1	
CCC(=O)N[C@H](Cc1ccc(NC(=O)[C@@H](NC(=O)Cc2c[nH]cn2)C2CCCCC2)c(F)c1)C(=O)N1CCN(C)CC1 [Compound 776]		X1b (compounds were evaluated up to 10 uM and inhibited activity at 10 uM by less than 20%)
CCc1nonc1C(=O)N[C@H](C(=O)Nc1ccc([C@H](C)[C@@H](NC(=O)N(C)C2CC2)C(=O)N2CCN(C)[C@H](C)C2)cc1F)[C@H]1CC[C@H](C)CC1 [Compound 508]	< 0.01	
CCC(=O)N[C@H](Cc1ccc(NC(=O)[C@@H](NC(=O)c2nonc2CC)[C@H]2CC[C@H](C)CC2)c(F)c1)C(=O)N1CCN(C)[C@@H](C)C1 [Compound 462]		A (compounds having a pIC50 of greater than or equal 8 as A)
CCC(=O)N[C@@H](C(=O)N1CCN(C)CC1)[C@@H](C)c1ccc(NC(=O)[C@@H](NC(=O)c2nonc2CC)[C@H](OC)c2ccc(F)cc2)c(F)c1 [Compound 611]	0.01 to 0.1	
CCC(=O)N[C@@H](C(=O)N1CCC(C)(O)CC1)[C@@H](C)c1ccc(NC(=O)[C@@H](NC(=O)C(F)(F)c2cccc(C#N)c2)C2CCCCC2)c(F)c1 [Compound 364]	< 0.01	
CCC(=O)N[C@@H](C(=O)N1CCN(C)CC1)[C@@H](C)c1ccc(NC(=O)[C@@H](NC(=O)c2cccn2CC)C2CCCCCC2)c(F)c1 [Compound 275]	< 0.01	
COc1ccc(C(F)(F)C(=O)N[C@H](C(=O)Nc2ccc([C@H](C)[C@@H](NC(=O)c3cnns3)C(=O)N3CCN(C)CC3)cc2F)[C@H]2CC[C@H](C)CC2)cn1 [Compound 620]	< 0.01	
CCCn1nccc1C(=O)N[C@H](C(=O)Nc1ccc(C[C@@H](NC(=O)CC)C(=O)N2CCN(C)CC2)cc1F)C1CCCCC1 [Compound 237]	0.01 to 0.1	
CCC(=O)N[C@H](Cc1ccc(NC(=O)[C@@H](NC(=O)C(F)(F)C2(O)CCCC2)C2CCCCC2)c(F)c1)C(=O)N1CCN(C)CC1 [Compound 715]		X2b (compounds were evaluated up to 1 uM and inhibited activity at 1 uM by less than 20%)
CCC(=O)NC(Cc1ccc(NC(=O)[C@@H](NC(=O)c2ccnn2CC)C2CCCCC2)c(F)c1)C(=O)N1CCN(Cc2cccnc2)CC1 (stereo partly shown) [Compound 652]	0.1 to 10	
CC(C)n1nccc1C(=O)N[C@H](C(=O)Nc1ccc([C@H](C)[C@@H](NC(=O)NC2CC2)C(=O)N2CCN(C)CC2)cc1F)C1CCCCCC1 [Compound 339]	< 0.01	
CCC(=O)N[C@@H](C(=O)N1CCN(C)CC1)[C@@H](C)c1ccc(NC(=O)[C@@H](NC(=O)C(F)(F)c2cncc(OC)c2)C2CCCCC2)c(F)c1 [Compound 246]	0.01 to 0.1	
CCC(=O)N[C@H](Cc1ccc(NC(=O)[C@@H](NC(=O)C(F)(F)c2ccc(=O)[nH]c2)C2CCCCC2)c(F)c1)C(=O)N1CCN(C)CC1 [Compound 217]	0.1 to 10	
CCC(=O)N[C@@H](C(=O)N1CCN(C)CC1)[C@@H](C)c1ccc(NC(=O)C(NC(=O)c2conc2CC)C2CCc3ccccc32)c(F)c1 (stereo partly shown) [Compound 287]	< 0.01	
CCC(=O)N[C@@H](C(=O)NC1CCOCC1)[C@@H](C)c1ccc(NC(=O)[C@@H](NC(=O)c2ccnn2CC)C2CCCCC2)c(F)c1 [Compound 360]	0.01 to 0.1	
CCC(=O)NC(C(=O)N1CCN(Cc2ccccc2)CC1)C(C)c1ccc(NC(=O)[C@@H](NC(=O)c2ccnn2CC)[C@H]2CC[C@H](C)CC2)c(F)c1 (single isomer, unassigned) [Compound 663]		X3b (compounds were evaluated up to 0.3 uM and inhibited activity at 0.3 uM by less than 20%)
CC(C)n1nccc1C(=O)N[C@H](C(=O)Nc1ccc([C@H](C)[C@@H](NC(=O)c2cnns2)C(=O)N2CCN(C)CC2)cc1F)C1CCCCC1 [Compound 312]	< 0.01	
C[C@@H](c1ccc(NC(=O)[C@@H](NC(=O)C(F)(F)C2CC2)C2CCCCCC2)c(F)c1)[C@@H](NC(=O)c1cnns1)C(=O)N1CCN(C)CC1 [Compound 536]	0.01 to 0.1	
CCC(=O)N[C@H](Cc1ccc(NC(=O)[C@H](Cc2cccc(Cl)c2)NC(=O)c2ccnn2CC)c(F)c1)C(=O)N1CCN(C)CC1 [Compound 726]		X2b (compounds were evaluated up to 1 uM and inhibited activity at 1 uM by less than 20%)
CCC(=O)N[C@@H](C(=O)N1CCN(C)CC1)[C@@H](C)c1ccc(NC(=O)[C@@H](NC(=O)C(F)(F)c2ccc(OC)nc2)C2CCCCCC2)c(F)c1 [Compound 219]	0.01 to 0.1	
CC(C)n1nccc1C(=O)N[C@H](C(=O)Nc1ccc([C@H](C)[C@@H](NC(=O)NC2CC2)C(=O)N2CCNCC2)cc1F)C1CCCCC1 [Compound 315]		A (compounds having a pIC50 of greater than or equal 8 as A)
CCC(=O)N[C@@H](C(=O)N1CCN(C)CC1)[C@@H](C)c1ccc(NC(=O)[C@@H](NC(=O)C(F)(F)C2CC2)C2CCCCC2)c(F)c1 [Compound 242]		X2b (compounds were evaluated up to 1 uM and inhibited activity at 1 uM by less than 20%)

More lines, main results first:

IC50 [µM]	SMILES	IL-17A/A inhibition (pIC50)
0.01 to 0.1	CCC(=O)N[C@@H](C(=O)N1CCC(O)CC1)[C@@H](C)c1ccc(NC(=O)[C@@H](NC(=O)c2ccnn2CC)[C@H]2CC[C@H](C)CC2)c(F)c1 [Compound 374]	
0.01 to 0.1	CCC(=O)NC(C(=O)N1CCN(C(C)C)CC1)[C@@H](C)c1ccc(NC(=O)[C@@H](NC(=O)c2ccnn2CC)[C@H]2CC[C@H](C)CC2)c(F)c1 (single isomer, unassigned) [Compound 368]	
0.01 to 0.1	CCC(=O)N[C@@H](C(=O)N1CCSCC1)[C@@H](C)c1ccc(NC(=O)[C@@H](NC(=O)c2ccnn2CC)[C@H]2CC[C@H](C)CC2)c(F)c1 [Compound 371]	
< 0.01	CCC(=O)N[C@@H](C(=O)N1CCN(C)CC1)[C@@H](C)c1ccc(NC(=O)C(NC(=O)c2ccnn2CC)[C@@H](C)C2CCCCC2)c(F)c1 (stereo partly shown) [Compound 390]	
0.01 to 0.1	CCn1nccc1C(=O)N[C@H](C(=O)Nc1ccc([C@H](C)[C@@H](NC(=O)c2cnsc2)C(=O)N2CCN(C)CC2)cc1F)C1CCCCC1 [Compound 305]	
< 0.01	CCC(=O)N[C@@H](C(=O)N1CCN(C)CC1)[C@@H](C)c1ccc(NC(=O)[C@@H](NC(=O)c2nonc2C(C)C)[C@H]2CC[C@H](C)CC2)c(F)c1 [Compound 549]	
< 0.01	CCn1nccc1C(=O)N[C@H](C(=O)Nc1ccc([C@H](C)[C@@H](NC(=O)N(C)C2CC2)C(=O)N2CCN(C)CC2)cc1F)[C@H]1CC[C@H](C)CC1 [Compound 488]	
< 0.01	CCC(=O)N[C@@H](C(=O)N1CCN(C)CC1)[C@@H](C)c1ccc(NC(=O)C(NC(=O)c2ccnn2CC)C2CCc3cc(F)cc(F)c32)c(F)c1 (single isomer, unassigned) [Compound 809]	
0.01 to 0.1	CCC(=O)N[C@@H](C(=O)N1CCN(C)CC1)[C@@H](C)c1ccc(NC(=O)[C@@H](NC(=O)c2conc2CC)[C@H]2CC[C@H](C)CC2)c(F)c1 [Compound 264]	
0.01 to 0.1	CCC(=O)N[C@@H](C(=O)N1CCN(C)CC1)[C@@H](C)c1ccc(NC(=O)[C@@H](NC(=O)c2ccnn2C(C)C)C2CCCCC2)c(F)c1 [Compound 256]	
< 0.01	CCc1nonc1C(=O)N[C@H](C(=O)Nc1ccc([C@H](C)[C@@H](NC(=O)[C@@H](C)F)C(=O)N2CCN(C)CC2)cc1F)[C@H]1CC[C@H](C)CC1 [Compound 500]	
< 0.01	CC(C)n1nccc1C(=O)N[C@H](C(=O)Nc1ccc([C@H](C)[C@@H](NC(=O)c2ccnn2CC2CC2)C(=O)N2CCN(C)CC2)cc1F)[C@H]1CC[C@H](C)CC1 [Compound 329]	
< 0.01	[2H]C1([2H])N(C)C([2H])([2H])C([2H])([2H])N(C(=O)[C@H](NC(=O)CC)[C@@H](C)c2ccc(NC(=O)[C@@H](NC(=O)c3ccnn3CC)[C@H]3CC[C@H](C)CC3)c(F)c2)C1([2H])[2H] [Compound 573]	
